Where a SMILES comes first, the peptide text is derived from it. [ ]: non-standard residue; d: D form. pGlu = O=C1CC[C@@H](C(=O)O)N1
Tested on: grass carp pituitary cells
Test: RNA-seq of pituitary cells treated with GnRH3
Format: cell-based, grass carp (Ctenopharyngodon idellus)
Settings: GnRH3 1 μM, 24 h
Text: Then, total RNA was extracted from each well by TRIzol reagent (Yeasen) and DNase II was used to eliminate the interference of genomic DNA. The concentration and purity of each RNA sample were detected by a NanoDrop 2000 spectrophotometer, while the quality of RNA was identified on an Agilent 2100 Bioanalyzer using the RNA 6000 Nano Kit (Agilent Technologies, Santa Clara, CA, USA). […] In this study, a read depth of 0.6 billion 150-bp single-end reads was used and about 90% of reads were mapped to the genome. Gene expression levels were assigned individual values by being normalized to the number of transcripts per kilobase of exon model per million […]. […] The P-value indicated the credibility of each differential gene expression and was corrected by the false discovery rate (FDR) ([21]). […] In the present study, using grass carp pituitary cells as model, high-throughput RNA-seq was used to examine the pituitary actions of GnRH3 in teleost. […] The most abundant GO terms among the cellular component category were ‘intracellular part’, ‘membrane-bounded organelle’, ‘intracellular membrane-bounded organelle’, ‘organelle part’, and ‘intracellular organelle part’. Furthermore, the plentiful groups of biological processes were ‘metabolic process’, ‘organic substance metabolic process’, ‘primary metabolic process’, ‘cellular metabolic process’, and ‘biological regulation ( Figure 3A ).

CC(C)C[C@H](NC(=O)[C@H](Cc1c[nH]c2ccccc12)NC(=O)CNC(=O)[C@H](Cc1ccc(O)cc1)NC(=O)[C@H](CO)NC(=O)[C@H](Cc1c[nH]c2ccccc12)NC(=O)[C@H](Cc1c[nH]cn1)NC(=O)[C@@H]1CCC(=O)N1)C(=O)N1CCC[C@H]1C(=O)NCC(N)=O [GnRH3] ([pGlu]HWSYGWLPG-NH2)
fold change (FC), suhb mRNA (3-Beta-hydroxysteroid sulfotransferase, FDR 2.86E-22): 0.44 | fold change (FC), atp5me mRNA (ATP synthase subunit e, FDR 5.40E-07): 0.69 | fold change (FC), arpc4 mRNA (Actin-related protein 2/3 subunit 4-like, FDR 1.86E-42): 0.66 | fold change (FC), creb2 mRNA (Activating transcription factor 4b, FDR 1.69E-07): 1.56 | fold change (FC), cart2 mRNA (Amphetamine-regulated transcript II precursor, FDR 1.73E-22): 19.16 | fold change (FC), anx11 mRNA (Annexin 11a, FDR 0): 3.17 | fold change (FC), mx1 mRNA (Antiviral effector Mx3, FDR 0.004203): 0.29 | fold change (FC), manf mRNA (Astrocyte-derived neurotrophic factor, FDR 6.58E-124): 1.71 | fold change (FC), npr3 mRNA (Atrial natriuretic peptide receptor 3 isoform X1, FDR 0): 11.53 | fold change (FC), e2.7.3.2 mRNA (Brain creatine kinase b, FDR 0): 3.88 | fold change (FC), agrb1 mRNA (Brain-specific angiogenesis inhibitor 1-like, FDR 0): 8.87 | fold change (FC), calm mRNA (Calmodulin, FDR 2.37E-221): 0.68 | fold change (FC), ctsl mRNA (Cathepsin La isoform X1, FDR 0): 2.55 | fold change (FC), cckar mRNA (Cholecystokinin receptor-like isoform, FDR 0.40): 1.41 | fold change (FC), chd4 mRNA (Chromodomain-DNA-binding protein 4, FDR 3.30E-172): 0.64 | fold change (FC), ctro mRNA (Citron Rho-interacting kinase, FDR 3.29E-164): 5.24 | fold change (FC), bha15 mRNA (Class A basic helix-loop-helix protein 15, FDR 0): 1.66 | fold change (FC), sod1 mRNA (Copper/zinc superoxide dismutase, FDR 1.09E-31): 0.69 | fold change (FC), mdh1 mRNA (Cytosolic malate dehydrogenase, FDR 4.31E-77): 0.68 | fold change (FC), dgkz mRNA (Diacylglycerol kinase zeta-like isoform X1, FDR 0.003213): 0.41 | fold change (FC), drd2 mRNA (Dopamine D2 receptor, FDR 2.63E-37): 0.35 | fold change (FC), rergl mRNA (Estrogen-regulated inhibitor-like protein, FDR 2.35E-26): 6.29 | fold change (FC), npy2r mRNA (Europeptide Y receptor type 2-like, FDR 0.07342027): 0.44 | fold change (FC), fabp7 mRNA (Fatty acid binding protein 7, FDR 5.12E-107): 0.50 | fold change (FC), fabp3 mRNA (Fatty-acid binding protein 3b, FDR 1.56E-177): 0.63 | fold change (FC), fth1 mRNA (Ferritin heavy chain, FDR 0): 1.90 | fold change (FC), gmpr1 mRNA (GMP reductase 1, FDR 2.64E-126): 0.61 | fold change (FC), bip mRNA (GRP78, FDR 5.39E-31): 1.78 | fold change (FC), ggh mRNA (Gamma-glutamyl hydrolase, FDR 1.06E-186): 1.51 | fold change (FC), grp mRNA (Gastrin-releasing peptide-like, FDR 1.46E-176): 1.52 | fold change (FC), gst mRNA (Glutathione S-transferase, FDR 8.59E-06): 0.67 | fold change (FC), gphb5 mRNA (Glycoprotein hormone beta-5, FDR 2.13E-64): 0.69 | fold change (FC), gthα mRNA (Glycoprotein hormones alpha chain, FDR 0): 1.28 | total number of different expression genes (DEGs) (three replicates, TPM >5, FDR <0.05): 820 | number of downregulated genes (three replicates, TPM >5, FDR <0.05, FC <0.7): 575 | number of upregulated genes (three replicates, TPM >5, FDR <0.05, FC >1.5): 245 | fold change (FC), pa2g3 mRNA (Group 3 secretory phospholipase A2-like, FDR 6.47E-212): 0.29 | fold change (FC), hpt mRNA (Haptoglobin-like, FDR 4.16E-131): 5.16 | fold change (FC), hmgb1 mRNA (High-mobility group box 1, FDR 7.95E-46): 0.69 | fold change (FC), hint1 mRNA (Histidine triad nucleotide-binding protein 1, FDR 7.80E-16): 0.66 | fold change (FC), h2a mRNA (Histone H2A, FDR 1.56E-20): 0.63 | fold change (FC), h2b3 mRNA (Histone H2B 3, FDR 4.58E-23): 0.53 | fold change (FC), h4 mRNA (Histone H4, FDR 0.002615): 0.68 | fold change (FC), inhba mRNA (Inhibin-beta A, FDR 1.08E-11): 1.90 | fold change (FC), il10ra mRNA (Interleukin-10 receptor 1, FDR 0.009871): 27.19 | fold change (FC), erg7 mRNA (Lanosterol synthase, FDR 1.00E-62): 0.43 | fold change (FC), lepr mRNA (Leptin receptor long form, FDR 6.73E-61): 2.60 | fold change (FC), lhβ mRNA (Luteinizing hormone, FDR 0): 1.32 | fold change (FC), rfx1 mRNA (MHC class II regulatory factor RFX1, FDR 0): 0.28 | fold change (FC), mvp mRNA (Major vault protein, FDR 2.14E-255): 0.64 | fold change (FC), mshr1 mRNA (Melanocyte-stimulating hormone receptor, FDR 0): 0.43 | fold change (FC), m3k20 mRNA (Mitogen-activated protein kinase kinase 20, FDR 0.00526): 0.31 | fold change (FC), smad7 mRNA (Mothers against decapentaplegic homolog 7, FDR 7.44E-31): 1.78 | fold change (FC), mcfd2 mRNA (Multiple coagulation factor deficiency protein, FDR 3.57E-236): 1.65 | fold change (FC), marcksl1b mRNA (Myristoylated alanine-rich C substrate 2, FDR 2.63E-101): 0.67 | fold change (FC), nab1 mRNA (NGFI-A-binding protein 1, FDR 3.65E-131): 5.88 | fold change (FC), nec1 mRNA (Neuroendocrine convertase 1, FDR 0): 1.54 | fold change (FC), nfasc mRNA (Neurofascin, FDR 5.61E-52): 10.71 | fold change (FC), nmb mRNA (Neuromedin-B-like, FDR 4.39E-07): 3.29 | fold change (FC), nltp mRNA (Non-specific lipid-transfer protein, FDR 2.86E-12): 0.41 | fold change (FC), nucb1 mRNA (Nucleobindin-1 precursor, FDR 1.72E-149): 1.56 | fold change (FC), nlrp3 mRNA (PYD domains-containing protein 3-like, FDR 0.000497): 0.26 | fold change (FC), fkbp11 mRNA (Peptidyl-prolyl cis-trans isomerase, FDR 0): 1.94 | fold change (FC), gpr61 mRNA (Probable G-protein coupled receptor-like, FDR 2.17E-78): 7.06 | fold change (FC), pdyn mRNA (Proenkephalin-B-like isoform X1, FDR 7.38E-17): 5.14 | fold change (FC), prl mRNA (Prolactin, FDR 0): 1.22 | fold change (FC), s100b mRNA (Protein S100-B, FDR 3.01E-240): 0.31 | fold change (FC), ppp1r17 mRNA (Protein phosphatase 1 regulatory 17-like, FDR 2.87E-10): 0.68 | fold change (FC), r4rl2 mRNA (Reticulon 4 receptor-like 2b precursor, FDR 6.85E-299): 93.68 | fold change (FC), estd mRNA (S-formylglutathione hydrolase, FDR 4.80E-36): 0.37 | fold change (FC), scg2 mRNA (Secretogranin II precursor, FDR 0): 1.51 | fold change (FC), sqstm1 mRNA (Sequestosome-1 isoform X1, FDR 0): 1.69 | fold change (FC), cdc42bp mRNA (Serine/threonine-protein kinase MRCK beta, FDR 0.004184): 0.37 | fold change (FC), plk2 mRNA (Serine/threonine-protein kinase PLK2, FDR 0): 5.78 | fold change (FC), sec11 mRNA (Signal peptidase complex catalytic subunit, FDR 1.55E-131): 1.55 | fold change (FC), spcs3 mRNA (Signal peptidase complex subunit 3, FDR 2.74E-239): 1.77 | fold change (FC), sstr3 mRNA (Somatostatin receptor type 3, FDR 3.09E-126): 0.42 | fold change (FC), stat4 mRNA (Stat 4-like, FDR 9.86E-21): 0.86 | fold change (FC), stat5a mRNA (Stat5.2 protein, FDR 0.04174356): 0.89 | fold change (FC), sdf2l mRNA (Stromal cell-derived factor 2-like 1, FDR 1.30E-57): 1.55 | fold change (FC), tt39b mRNA (Tetratricopeptide repeat protein 39B-like, FDR 6.74E-06): 6.76 | fold change (FC), rdl mRNA (Thiosulfate sulfurtransferase, FDR 3.51E-111): 1.57 | fold change (FC), ppp1r10 mRNA (Threonine-protein phosphatase 1 regulatory, FDR 2.43E-39): 0.42 | fold change (FC), junb mRNA (Transcription factor jun-B, FDR 2.36E-96): 1.89 | fold change (FC), rhoa mRNA (Transforming protein rhoa, FDR 0.042946): 0.32 | fold change (FC), tpisb mRNA (Triosephosphate isomerase B, FDR 8.61E-53): 0.68 | fold change (FC), tph1 mRNA (Tryptophan 5-hydroxylase 1, FDR 0): 17.70 | fold change (FC), tubb mRNA (Tubulin beta-4B chain, FDR 3.79E-49): 0.40 | fold change (FC), tsg6 mRNA (Tumor necrosis factor-inducible gene 6 protein, FDR 1.99E-06): 5.12 | fold change (FC), crh mRNA (Urotensin 1, FDR 6.72E-06): 1.74 | fold change (FC), snf8 mRNA (Vacuolar-sorting protein SNF8-like, FDR 1.18E-06): 0.44 | fold change (FC), vdac3 mRNA (Voltage-dependent anion-selective protein 3, FDR 5.87E-44): 0.69 | fold change (FC), zbtb8 mRNA (Zinc finger domain-containing protein 8A, FDR 1.08E-73): 1.69 | fold change (FC), zfp36l mRNA (Zinc finger protein 36, C3H type-like 1b, FDR 1.92E-125): 0.66 | fold change (FC), pim1 mRNA (threonine-protein kinase pim-1, FDR 0): 3.25
